Results as given in PubChem BioAssay AID1259407 (Chemical Carcinogenesis Research Information System (CCRIS), 2018).
Activity calls are given as the source filed them. The rule behind the calls is not given here.

Tested on: CCRIS mutagenicity, Ames/micronucleus/aberration tests
Assay: CCRIS mutagenicity studies
[1] = Test System: AMES SALMONELLA TYPHIMURIUM, Strain/Indicator: TA100, Metabolic Activation: RAT, LIVER, S-9, PHENOBARBITAL, Method: STANDARD PLATE

Structure (SMILES): CN(N=O)C(N)=O
- mutagenic call (End Point: IN VITRO CHROMOSOMAL ABERRATIONS, Test System: CHINESE HAMSTER V79-E CELLS, Metabolic Activation: NONE): active; positive
- mutagenic call (End Point: IN VITRO CHROMOSOMAL ABERRATIONS, Test System: V79 CELLS (V79-C10), Metabolic Activation: NONE): active; positive
- mutagenic call (End Point: IN VITRO MICRONUCLEUS, Test System: CHINESE HAMSTER V79 CELLS, Metabolic Activation: NONE): active; positive at the cytotoxic dose of 0.8 mm
- mutagenic call (End Point: IN VITRO MICRONUCLEUS, Test System: MOUSE LYMPHOMA L5178Y CELLS, Metabolic Activation: NONE): active; positive
- mutagenic call (End Point: Mutagenicity, Test System: Spleen: t-lymphocytes/hprt mutants, Species: Rat, Strain/Sex: Wistar/male, Route: Intraperitoneal): active; positive; mutation induction dramatically lower following subchronic treatment;
- mutagenic call (Test System: AMES SALMONELLA TYPHIMURIUM, Strain/Indicator: G46, Metabolic Activation: NONE, Method: STANDARD PLATE): active; positive
- mutagenic call (Test System: AMES SALMONELLA TYPHIMURIUM, Strain/Indicator: TA100, Metabolic Activation: NONE, Method: LIQUID INCUBATION): active; positive
- mutagenic call (Test System: AMES SALMONELLA TYPHIMURIUM, Strain/Indicator: TA100, Metabolic Activation: NONE, Method: STANDARD PLATE): active; positive
- mutagenic call (Test System: AMES SALMONELLA TYPHIMURIUM, Strain/Indicator: TA100, Metabolic Activation: RAT, LIVER, S-9, AROCLOR 1254, Method: PREINCUBATION): active; positive
- mutagenic call (Test System: AMES SALMONELLA TYPHIMURIUM, Strain/Indicator: TA100, Metabolic Activation: RAT, LIVER, S-9, KC500 OR PHENOBARBITAL, Method: LIQUID SUSPENSION): active; positive
- mutagenic call [1]: active; positive
- mutagenic call (Test System: AMES SALMONELLA TYPHIMURIUM, Strain/Indicator: TA102, Metabolic Activation: RAT, LIVER, S-9, AROCLOR 1254, Method: PREINCUBATION): active; positive
- mutagenic call (Test System: AMES SALMONELLA TYPHIMURIUM, Strain/Indicator: TA104, Metabolic Activation: NONE, Method: PREINCUBATION): active; positive
- mutagenic call (Test System: AMES SALMONELLA TYPHIMURIUM, Strain/Indicator: TA104, Metabolic Activation: RAT, LIVER, S-9, AROCLOR 1254, Method: PREINCUBATION): active; positive
- mutagenic call (Test System: AMES SALMONELLA TYPHIMURIUM, Strain/Indicator: TA1530, Metabolic Activation: NONE, Method: PREINCUBATION): active; positive
- mutagenic call (Test System: AMES SALMONELLA TYPHIMURIUM, Strain/Indicator: TA1530, Metabolic Activation: NONE, Method: STANDARD PLATE): active; positive
- mutagenic call (Test System: AMES SALMONELLA TYPHIMURIUM, Strain/Indicator: TA1535, Metabolic Activation: NONE, Method: LIQUID INCUBATION): active; positive
- mutagenic call (Test System: AMES SALMONELLA TYPHIMURIUM, Strain/Indicator: TA1535, Metabolic Activation: NONE, Method: PREINCUBATION): active; positive
- mutagenic call (Test System: AMES SALMONELLA TYPHIMURIUM, Strain/Indicator: TA1535, Metabolic Activation: NONE, Method: STANDARD PLATE): active; positive
- mutagenic call (Test System: AMES SALMONELLA TYPHIMURIUM, Strain/Indicator: TA1535, Metabolic Activation: RAT, LIVER, S-9, PCB OR PHENOBARBITAL, Method: STANDARD PLATE): active; positive
- mutagenic call (Test System: AMES SALMONELLA TYPHIMURIUM, Strain/Indicator: YG7100, Metabolic Activation: NONE, Method: PREINCUBATION): active; positive
- mutagenic call (Test System: AMES SALMONELLA TYPHIMURIUM, Strain/Indicator: YG7104, Metabolic Activation: NONE, Method: PREINCUBATION): active; positive
- mutagenic call (Test System: AMES SALMONELLA TYPHIMURIUM, Strain/Indicator: YG7108, Metabolic Activation: NONE, Method: PREINCUBATION): active; positive
- mutagenic call (Test System: AMES SALMONELLA TYPHIMURIUM, Strain/Indicator: YG7112, Metabolic Activation: NONE, Method: PREINCUBATION): active; positive
- mutagenic call (Test System: AMES SALMONELLA TYPHIMURIUM, Strain/Indicator: YG7113, Metabolic Activation: NONE, Method: PREINCUBATION): active; positive
- mutagenic call (Test System: AMES SALMONELLA TYPHIMURIUM, Strain/Indicator: YG7119, Metabolic Activation: NONE, Method: PREINCUBATION): active; positive
- mutagenic call (Test System: CHINESE HAMSTER OVARY, Strain/Indicator: CHO-K1-BH4 (HGPRT), Metabolic Activation: NONE, Method: SUSPENSION/PLATE): active; positive
- mutagenic call (Test System: CHINESE HAMSTER V-79, Strain/Indicator: V-79/6-THIOGUANINE, Metabolic Activation: NONE, Method: FLASK ASSAY): active; positive
- mutagenic call (Test System: CHINESE HAMSTER V-79, Strain/Indicator: V-79/6-THIOGUANINE, Metabolic Activation: NONE, Method: STANDARD PLATE): active; positive
- mutagenic call (Test System: CHINESE HAMSTER V-79, Strain/Indicator: V-79/8-AZAGUANINE, Metabolic Activation: NONE, Method: STANDARD PLATE): active; positive
- mutagenic call (Test System: CHINESE HAMSTER V-79, Strain/Indicator: V-79/OUABAIN, Metabolic Activation: NONE): active; positive
- mutagenic call (Test System: CHO/HGPRT, Strain/Indicator: CHO-K1-BH4, Metabolic Activation: NONE): active; positive
- mutagenic call (Test System: CHO/HGPRT, Strain/Indicator: CHO-K1-BH4, Metabolic Activation: NONE, Method: STANDARD PLATE): active; positive
- mutagenic call (Test System: E. COLI, Strain/Indicator: H/R30R, Metabolic Activation: NONE): active; positive
- mutagenic call (Test System: E. COLI, Strain/Indicator: H/R30R, Metabolic Activation: NONE, Method: PREINCUBATION): active; positive
- mutagenic call (Test System: E. COLI, Strain/Indicator: HS30R UVRA, Metabolic Activation: NONE, Method: PREINCUBATION): active; positive
- mutagenic call (Test System: E. COLI, Strain/Indicator: HS30R, Metabolic Activation: NONE): active; positive
- mutagenic call (Test System: E. COLI, Strain/Indicator: NG30 RECA, Metabolic Activation: NONE, Method: PREINCUBATION): active; positive
- mutagenic call (Test System: E. COLI, Strain/Indicator: O16 POLA, Metabolic Activation: NONE, Method: PREINCUBATION): active; positive
- mutagenic call (Test System: E. COLI, Strain/Indicator: WP2, Metabolic Activation: NONE, Method: FLUCTUATION): active; positive
- mutagenic call (Test System: E. COLI, Strain/Indicator: WP2, Metabolic Activation: NONE, Method: STANDARD PLATE): active; positive
- mutagenic call (Test System: E. COLI, Strain/Indicator: WP2 UVRA, Metabolic Activation: NONE, Method: FLUCTUATION): active; positive
- mutagenic call (Test System: E. COLI, Strain/Indicator: WP2 UVRA, Metabolic Activation: NONE, Method: STANDARD PLATE): active; positive
- mutagenic call (Test System: LacZ transgenic mouse (Muta Mouse), Strain/Indicator: LacZ Mutant frequency, Method: Liver and kidney harvested 37 days after last dose): active; positive in kidney. no increase in mutation frequency in liver.
- mutagenic call (Test System: UDS HUMAN CELLS, Strain/Indicator: THY INCORP (NON-S-PHASE), Metabolic Activation: NONE, Method: LIQUID SCINTILLATION COUNTING): active; positive
- mutagenic call (Test System: UDS HUMAN FIBROBLASTS, Strain/Indicator: THY INCORP (NON-S-PHASE), Metabolic Activation: NONE, Method: AUTORADIOGRAPHY): active; positive
- mutagenic call (Test System: UDS MOUSE SPERMATOGONIAL AND POSTSPERMATOGONIAL CELLS IN VIVO, Strain/Indicator: THYMIDINE INCORPORATION, Metabolic Activation: NONE, Method: AUTORADIOGRAPHY): active; positive
- mutagenic call (Test System: UDS RODENT CELLS, Strain/Indicator: THY INCORP (NON-S-PHASE), Metabolic Activation: NONE, Method: LIQUID SCINTILLATION COUNTING): active; positive

Structure (SMILES): COc1cc2c(c3oc4cccc(O)c4c(=O)c13)[C@@H]1CCO[C@@H]1O2
- mutagenic call (Test System: AMES SALMONELLA TYPHIMURIUM, Strain/Indicator: TA98, Metabolic Activation: RAT, LIVER, S-9, PHENOBARBITAL, Method: STANDARD PLATE): inactive; negative
- mutagenic call [1]: inactive; negative

Structure (SMILES): CCN(Cc1cccc(S(=O)(=O)O)c1)c1ccc(C(=C2C=CC(=[N+](CC)Cc3cccc(S(=O)(=O)[O-])c3)C=C2)c2ccc(S(=O)(=O)O)cc2)cc1
- mutagenic call (Test System: AMES SALMONELLA TYPHIMURIUM, Strain/Indicator: TA98, Metabolic Activation: HAMSTER, LIVER, S-9, AROCLOR 1254, Method: STANDARD PLATE): active; positive
- mutagenic call (Test System: AMES SALMONELLA TYPHIMURIUM, Strain/Indicator: TA98, Metabolic Activation: HAMSTER, LIVER, S-9, Method: PREINCUBATION (PRIVAL METHOD)): active; positive
- mutagenic call (Test System: AMES SALMONELLA TYPHIMURIUM, Strain/Indicator: TA100, Metabolic Activation: HAMSTER, LIVER, S-9, Method: PREINCUBATION (PRIVAL METHOD)): active; positive
- mutagenic call (Test System: AMES SALMONELLA TYPHIMURIUM, Strain/Indicator: TA1538, Metabolic Activation: HAMSTER, LIVER, S-9, AROCLOR 1254, Method: STANDARD PLATE): active; positive
- mutagenic call (Test System: Mouse lymphoma, Strain/Indicator: L5178Y (tk+/tk-), Metabolic Activation: None, Method: Suspension/plate): active; positive
- mutagenic call (Test System: Mouse lymphoma, Strain/Indicator: L5178Y (tk+/tk-), Metabolic Activation: Rat, Liver, S-9, Aroclor 1254, Method: Suspension/plate): inactive; negative
